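48-hour exposure; five concentrations; linearly interpolated endpoints. GI50: concentration for 50% inhibition of growth.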 Active and inactive are the calls of the source. No stated cut-off is given here; in the data, active = GI50 up to about 1.1 µM and inactive = higher.
Columns and labels:
Test in all cases: inhibition of tumour cell growth, NCI panel, 48 h
HL-60 = test system: HL-60
KM-20L2 = test system: KM-20L2
SW-620 = test system: SW-620
NCI-H226 = test system: NCI-H226
HT-29 = test system: HT-29
RPMI-8226 = test system: RPMI-8226
M19-MEL = test system: M19-MEL
SNB-78 = test system: SNB-78
HCT-116 = test system: HCT-116
SK-MEL-5 = test system: SK-MEL-5
SR = test system: SR
CAKI-1 = test system: CAKI-1
EKVX = test system: EKVX
DMS-273 = test system: DMS-273
XF498 = test system: XF498

Measured: GI50

COc1ccc(/C=N/C23CC4CC(CC(C4)C2)C3)cc1
inactive: HL-60 > 100 µM | KM-20L2 > 100 µM | SW-620 > 100 µM | NCI-H226 > 100 µM | HT-29 > 100 µM | RPMI-8226 > 100 µM | M19-MEL > 10 µM | SNB-78 > 100 µM | HCT-116 > 100 µM | SK-MEL-5 > 100 µM | SR > 100 µM | CAKI-1 > 100 µM | EKVX > 100 µM | DMS-273 > 10 µM

CCOC(=O)C1=C(C)N(NC(=O)c2ccccc2)C2(O)CCCC12C(=O)OCC (stereo unspecified)
inactive: HL-60 > 100 µM | KM-20L2 > 100 µM | SW-620 > 100 µM | XF498 55 µM | NCI-H226 > 100 µM | HT-29 > 100 µM | RPMI-8226 > 100 µM | M19-MEL > 100 µM | HCT-116 > 100 µM | SK-MEL-5 > 100 µM | SR 73.3 µM | CAKI-1 > 100 µM | EKVX > 100 µM | DMS-273 > 100 µM

COC(OC)c1cccc2c1C(=O)CCC1(O)c3ccccc3C1C2 (stereo unspecified)
inactive: HL-60 35.2 µM | SW-620 > 100 µM | XF498 > 100 µM | NCI-H226 83.8 µM | HT-29 > 100 µM | RPMI-8226 12.2 µM | M19-MEL > 100 µM | SNB-78 > 100 µM | HCT-116 33.7 µM | SK-MEL-5 > 100 µM | SR > 100 µM | EKVX > 100 µM | DMS-273 > 100 µM

CCCCCCCCCCOC(=O)c1cc[n+](C)cc1
inactive: HL-60 17.8 µM | SW-620 19.1 µM | XF498 17.5 µM | NCI-H226 18.1 µM | HT-29 16.7 µM | RPMI-8226 16.3 µM | M19-MEL 17.8 µM | SNB-78 17.9 µM | HCT-116 18.3 µM | SK-MEL-5 19.1 µM | SR 16.3 µM | CAKI-1 16.6 µM | EKVX 16.7 µM | DMS-273 17.3 µM

COc1ccc2c(C3(O)CCNCC3)c[nH]c2c1
inactive: HL-60 > 100 µM | KM-20L2 > 100 µM | SW-620 > 100 µM | HT-29 > 100 µM | RPMI-8226 > 100 µM | M19-MEL > 100 µM | SK-MEL-5 > 100 µM | CAKI-1 > 100 µM | EKVX > 100 µM | DMS-273 > 100 µM

C/C(CC(=O)Nc1ccc(C)c(C)c1)=N\N(c1ccccc1)c1ccccc1
inactive: HL-60 88.1 µM | KM-20L2 13.3 µM | XF498 > 100 µM | NCI-H226 > 100 µM | HT-29 > 100 µM | RPMI-8226 47.1 µM | SNB-78 > 100 µM | HCT-116 43.4 µM | SK-MEL-5 62.7 µM | SR 22.4 µM | CAKI-1 80.7 µM | EKVX > 100 µM | DMS-273 17.6 µM

CC1CC(=O)C2CC(CO)=CCCC2C1(C)CC/C(=C/CO)CO (stereo unspecified)
inactive: SW-620 > 100 µM | NCI-H226 > 100 µM | HT-29 > 100 µM | RPMI-8226 > 100 µM | M19-MEL > 100 µM | SNB-78 > 100 µM | HCT-116 > 100 µM | SK-MEL-5 > 100 µM | CAKI-1 > 100 µM | EKVX > 100 µM | DMS-273 > 100 µM

CCCCCCCCCCCc1noc2c1C(=O)C(O)CC2 (stereo unspecified)
inactive: HL-60 23.9 µM | KM-20L2 17.2 µM | SW-620 18 µM | XF498 13.6 µM | NCI-H226 16.1 µM | HT-29 18.8 µM | RPMI-8226 25 µM | SNB-78 24.4 µM | HCT-116 17.6 µM | SK-MEL-5 14.6 µM | SR 27.2 µM | CAKI-1 32.8 µM | EKVX 33.5 µM | DMS-273 16.8 µM

CCCCN(CCCC)C(=O)C(=O)CC(=O)/C=C/c1ccccc1
inactive: HL-60 > 100 µM | KM-20L2 > 100 µM | SW-620 > 100 µM | NCI-H226 > 100 µM | HT-29 > 100 µM | RPMI-8226 > 100 µM | M19-MEL > 100 µM | SNB-78 > 100 µM | HCT-116 > 100 µM | SK-MEL-5 > 100 µM | SR > 100 µM | CAKI-1 > 100 µM | EKVX > 100 µM | DMS-273 > 100 µM

CS(=O)(=O)NNS(=O)(=O)c1cccc([N+](=O)[O-])c1
inactive: HL-60 > 100 µM | KM-20L2 > 100 µM | SW-620 > 100 µM | XF498 > 100 µM | NCI-H226 > 100 µM | HT-29 > 100 µM | RPMI-8226 > 100 µM | M19-MEL > 100 µM | HCT-116 > 100 µM | SK-MEL-5 > 100 µM | SR > 100 µM | CAKI-1 > 100 µM | EKVX > 100 µM | DMS-273 > 100 µM

From ChEMBL document CHEMBL1201862, “PubChem BioAssay data set” (2004)
